# Data as given in patent US9186296B2, “Containers for compositions comprising meloxicam” (Boehringer Ingelheim Vetmedica GmbH, priority 2009, dated 2015).
# Experiment: long-term stability programme according to VICH guideline 3 (storage in bottles of different materials)
# Assay type: physicochemical
# Conditions: PP bottles compared with bottles made of HDPE or LDPE; FIG. 4, 5, 6
# Procedure: The preferred pharmaceutical composition filled into containers made of the different types of packaging has been subject to a long-term stability programme according to the conditions as described in the VICH guideline 3. The conditions used for storage were 25° C./60% r.h. (r.h.=relative humidity), 30° C./70% r.h., and 40° C. /75% r.h.
# The stability studies of a 0.5 mg/ml suspension were carried out with 3 ml and 4 ml of the suspension being filled into 5 ml HDPE bottles. […] This has not been observed before for any of the suspensions (1.5 mg/ml or 0.5 mg/ml) or the different fill volumes. The shelf-life of the 1.5 mg/ml suspension with a 10 ml fill (in a 25 ml bottle) is for example at least 18 months. An acceptable shelf-life for commercial use of the product with a volume size for the treatment of cats for a few days (up to five days) cannot be established by using HDPE as the container material.
# Thus, polypropylene is a suitable material for holding small volumes of oral suspensions comprising meloxicam and sodium benzoate as preservative. The suitability of PP is further shown by comparison with the unsuitable negative reference containers made of PET and PC, see FIGS. 1, 3, and 4.
compound,measurement,value
O=C([O-])c1ccccc1.[Na+] [sodium benzoate],decrease of sodium benzoate content over 18 months or at least 18 months,significantly lower in PP bottles than in bottles made of either HDPE or LDPE
